# Results: US20170275287A1, “NOVEL N2, N4, N7, 6-TETRASUBSTITUTED PTERIDINE-2,4,7-TRIAMINE AND 2, 4, 6, 7-TETRASUBSTITUTED PTERIDINE COMPOUNDS AND METHODS OF SYNTHESIS AND USE THEREOF” (Janus Biotherapeutics, Inc., priority 2014, published 2017)
# Target: T1, TLR8 (Homo sapiens, UniProt Q9NR97)
# T1 construct: PBMCs were isolated from unpurified buffy coat from healthy human donors; host or cells: primary human PBMCs
# T1 sequence (Q9NR97 27-1041): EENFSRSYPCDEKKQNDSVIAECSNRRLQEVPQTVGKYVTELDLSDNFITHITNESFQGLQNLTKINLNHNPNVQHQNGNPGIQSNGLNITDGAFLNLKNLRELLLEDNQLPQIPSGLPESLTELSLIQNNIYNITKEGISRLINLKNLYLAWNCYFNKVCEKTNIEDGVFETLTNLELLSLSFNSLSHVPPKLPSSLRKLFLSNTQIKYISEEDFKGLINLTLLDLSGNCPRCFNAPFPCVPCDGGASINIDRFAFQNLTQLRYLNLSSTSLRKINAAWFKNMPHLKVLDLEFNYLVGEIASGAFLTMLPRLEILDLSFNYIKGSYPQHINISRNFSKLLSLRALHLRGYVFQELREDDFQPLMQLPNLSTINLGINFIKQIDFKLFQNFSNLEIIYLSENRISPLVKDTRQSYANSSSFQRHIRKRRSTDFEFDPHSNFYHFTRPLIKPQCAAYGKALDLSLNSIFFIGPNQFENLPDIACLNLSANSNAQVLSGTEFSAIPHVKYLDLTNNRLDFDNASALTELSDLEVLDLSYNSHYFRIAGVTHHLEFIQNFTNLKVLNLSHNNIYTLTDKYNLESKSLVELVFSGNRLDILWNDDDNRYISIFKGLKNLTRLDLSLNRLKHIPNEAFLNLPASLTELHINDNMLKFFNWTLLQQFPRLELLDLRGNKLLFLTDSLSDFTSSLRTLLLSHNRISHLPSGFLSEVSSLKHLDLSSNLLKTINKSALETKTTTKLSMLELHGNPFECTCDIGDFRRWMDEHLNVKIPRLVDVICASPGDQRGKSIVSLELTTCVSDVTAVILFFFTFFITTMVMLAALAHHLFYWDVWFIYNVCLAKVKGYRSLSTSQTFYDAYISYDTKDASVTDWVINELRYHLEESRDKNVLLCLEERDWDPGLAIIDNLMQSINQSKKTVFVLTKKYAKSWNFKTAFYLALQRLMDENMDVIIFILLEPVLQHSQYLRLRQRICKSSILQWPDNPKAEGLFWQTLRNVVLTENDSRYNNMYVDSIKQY
# Assay: TLR8 antagonist assay in human PBMCs (ORN1075, TNFα ELISA)
# Assay type: cell-based
# Settings: human PBMC, 0.5 μM ORN1075, TNFα readout
# Method: PBMCs were isolated from unpurified buffy coat from healthy human donors (Blood Research Components, LLC). For antagonist testing, cells were plated on 96-well U-bottom plates at 3×10^6 cells/ml. Antagonist compounds were added to cells in duplicate wells and titrated from 10 μM in 1:3 serial dilutions (8 antagonist concentrations tested in total). After approximately 30 minutes, cells were stimulated with agonist compound (see table 2 for agonist concentrations). After stimulation, cells were incubated overnight at 37° C. To increase the stability of the ssRNA, 3 μg/ml DOTAP (Roche) was added to ORN1075 agonist solutions. All dilutions were made in RPMI-1640 media (Sigma, cat.# R7388)+5% human male AB sera (Sigma, cat.# H4522)+1× Penicillin/Streptomycin solution (VWR, cat.#82026-730).
# TLR activity was measured in PBMCs and neutrophils by ELISA using cytokine readouts specific for the TLR of interest.
# TNFα was used as a readout for TLR8 activity in PBMCs and neutrophils stimulated with ORN1075 (See Table 3 for concentrations) using the ELISA Max™ Deluxe Set Human TNFα kit (BioLegend, cat.#430206). Supernatant from PBMCs was diluted 1:50 and from neutrophils at 1:3 in 1× Assay Diluent (BioLegend). ELISAs were run according to the kit product specifications. Absorbance at 450 nm was recorded using a Molecular Devices SpectraMax340PC plate reader. The IC50 for each antagonist was subsequently calculated following the method described below.
# Raw ELISA datasets for each 96-well plate, consisting of absorbance readings at […], were first imported in Microsoft Excel to calculate the average absorbance for each standard or antagonist concentration. The averaged data was then imported into SigmaPlot v.11.0 where a standard curve was calculated and used to extrapolate the relative concentration of TLR readout (TNFα, IFNα, etc.) produced. The dose-response curve of each antagonist was then plotted with SigmaPlot v.11.0 on a Log scale. Concentrations of TLR readout were converted to a percentage relative to the average maximum concentration for that ELISA plate in Microsoft Excel. The IC50 for each antagonist was then determined with the SigmaPlot regression wizard using a 4-parameter Hill equation. Each antagonist was tested in a minimum of 3 independent experiments and IC50 results were compiled and averaged using Microsoft Excel.
row,SMILES,IC50 [µM]
1,C[C@@H]1CN(CCNc2nc3nc(N4CCN(C)CC4)nc(NCCN4C[C@@H](C)O[C@@H](C)C4)c3nc2Cl)C[C@H](C)O1 [JB6143],0.263
2,Clc1nc2c(NCCN3CCOCC3)nc(N3CCOCC3)nc2nc1NCCN1CCOCC1 [JB6147],7.3
3,"CN1CCN(c2nc(NCCN3CCOCC3)c3nc(Cl)c(NCCN4CCOCC4)nc3n2)CC1 [JB6121, 6-chloro-2-(4-methylpiperazin-1-yl)-N^4,N^7-bis(2-morpholinoethyl)pteridine-4,7-diamine]",0.514
4,CN1CCN(c2nc3nc(-c4ccccc4)nc(NCCN4CCOCC4)c3nc2OCCN2CCOCC2)CC1 [JB6116],0.658
5,CCCCNc1nc(NCCN2CCOCC2)c2nc(Cl)c(NCCN3CCOCC3)nc2n1 [JB6140],0.754
6,CN1CCN(c2nc(NCCN3CCOCC3)c3ncc(-c4ccccc4)nc3n2)CC1 [JB6059],0.273

# The next compounds have a lower IC50 than those just listed; values first:
row,IC50 [µM],SMILES
1,0.219,COCCN1CCN(c2nc(NCCN3CCOCC3)c3nc(Cl)c(NCCN4CCOCC4)nc3n2)CC1 [JB6160]
2,0.078,CCOc1nc2c(NCCN3CCCC3)nc(-c3ccccc3)nc2nc1N1CCN(C)CC1 [JB6131]
3,0.151,CCOc1nc2c(NCCN3CCOCC3)nc(NCc3ccccc3)nc2nc1NCCN1CCOCC1 [JB6180]
4,0.246,Clc1nc2c(NCCN3CCOCC3)nc(NCc3ccccc3)nc2nc1NCCN1CCOCC1 [JB6172]
5,0.136,CCCCNc1nc(NCCN2CCOCC2)c2nc(SCC)c(NCCN3CCOCC3)nc2n1 [JB6185]
